Laboratory results: PubChem BioAssay AID2060509 (Molecular Pharmacology Branch, DTP, NCI, 2025)

Test system: 485176-168-R4-J1-PDC spheroids with HUVEC/MSC, viability
Assay: Anticancer human tumor 485176-168-R4-J1-PDC patient-derived pancreatic adenocarcinoma cell line growth inhibition [GQUAD]
Settings: for IC50: curve of first compound; for viability, T/C: stronger effect = lower value
Outline: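 Multi-cell-type spheroids of tumor cells with HUVEC and mesenchymal stem cells, treated with drug combinations. Concentrations descend in half-log steps from near clinical Cmax, or from 10 microM where Cmax is unknown; viability read-out.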

[1] = second compound 0.0316 µM, first compound 0.0316 µM
[2] = second compound 0.0316 µM, first compound 0.1 µM
[3] = second compound 0.0316 µM, first compound 0.316 µM
[4] = second compound 0.0316 µM, first compound 1 µM
[5] = second compound 0.0316 µM, first compound 3.16 µM
[6] = second compound 0.0316 µM, first compound 10 µM
[7] = second compound 0.1 µM, first compound 0.0316 µM
[8] = second compound 0.1 µM, first compound 0.1 µM
[9] = second compound 0.1 µM, first compound 0.316 µM
[10] = second compound 0.1 µM, first compound 1 µM
[11] = second compound 0.1 µM, first compound 3.16 µM
[12] = second compound 0.1 µM, first compound 10 µM
[13] = second compound 0.316 µM, first compound 0.0316 µM
[14] = second compound 0.316 µM, first compound 0.1 µM
[15] = second compound 0.316 µM, first compound 0.316 µM
[16] = second compound 0.316 µM, first compound 1 µM
[17] = second compound 0.316 µM, first compound 3.16 µM
[18] = second compound 0.316 µM, first compound 10 µM
[19] = second compound 1 µM, first compound 0.0316 µM
[20] = second compound 1 µM, first compound 0.1 µM
[21] = second compound 1 µM, first compound 0.316 µM
[22] = second compound 1 µM, first compound 1 µM
[23] = second compound 1 µM, first compound 3.16 µM
[24] = second compound 1 µM, first compound 10 µM
[25] = second compound 3.16 µM, first compound 0.0316 µM
[26] = second compound 3.16 µM, first compound 0.1 µM
[27] = second compound 3.16 µM, first compound 0.316 µM
[28] = second compound 3.16 µM, first compound 1 µM
[29] = second compound 3.16 µM, first compound 3.16 µM
[30] = second compound 3.16 µM, first compound 10 µM
[31] = second compound 10 µM, first compound 0.0316 µM
[32] = second compound 10 µM, first compound 0.1 µM
[33] = second compound 10 µM, first compound 0.316 µM
[34] = second compound 10 µM, first compound 1 µM
[35] = second compound 10 µM, first compound 3.16 µM
[36] = second compound 10 µM, first compound 10 µM
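Note: spheroids exposed to compounds for seven days before readout.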
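Throughout, for viability, T/C: percent viability relative to DMSO vehicle control wells as 100%.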

SMILES: CC1COCCN1c1cc(-c2ccnn2C)c2ccnc(-c3ccn[nH]3)c2n1 (centres undefined) + Cc1[nH]c2ccc(F)cc2c1-c1nc2c3cccnc3c3ncccc3c2[nH]1
- IC50 (second compound 0.0316 µM): 0.062 µM
- IC50 (second compound 0.1 µM): 0.0854 µM
- IC50 (second compound 0.316 µM): 0.0771 µM
- IC50 (second compound 1 µM): 0.0572 µM
- IC50 (second compound 3.16 µM): 0.0642 µM
- IC50 (second compound 10 µM): 0.0698 µM
- viability, T/C [1]: 71.8%
- viability, T/C [2]: 34.2%
- viability, T/C [3]: 19.2%
- viability, T/C [4]: 10.6%
- viability, T/C [5]: 10.7%
- viability, T/C [6]: 11.7%
- viability, T/C [7]: 60.5%
- viability, T/C [8]: 48.3%
- viability, T/C [9]: 16.8%
- viability, T/C [10]: 10.9%
- viability, T/C [11]: 11.1%
- viability, T/C [12]: 13.2%
- viability, T/C [13]: 67%
- viability, T/C [14]: 45%
- viability, T/C [15]: 18.7%
- viability, T/C [16]: 10.4%
- viability, T/C [17]: 12.3%
- viability, T/C [18]: 11.3%
- viability, T/C [19]: 61.1%
- viability, T/C [20]: 39.5%
- viability, T/C [21]: 19.1%
- viability, T/C [22]: 10.3%
- viability, T/C [23]: 10.6%
- viability, T/C [24]: 9.82%
- viability, T/C [25]: 64.9%
- viability, T/C [26]: 40.6%
- viability, T/C [27]: 15.8%
- viability, T/C [28]: 9.36%
- viability, T/C [29]: 11.8%
- viability, T/C [30]: 12%
- viability, T/C [31]: 70.3%
- viability, T/C [32]: 40.7%
- viability, T/C [33]: 18.2%
- viability, T/C [34]: 10.9%
- viability, T/C [35]: 11.2%
- viability, T/C [36]: 11.4%

SMILES: C=CC(=O)N1CCN(c2nc(=O)n(-c3c(C)ccnc3C(C)C)c3nc(-c4c(O)cccc4F)c(F)cc23)C(C)C1 (centres undefined) + CN(C)c1ccc(Nc2c3ccc(NC(=O)CCN4CCCC4)cc3nc3cc(NC(=O)CCN4CCCC4)ccc23)cc1
- IC50 (second compound 0.0316 µM): > 10 µM
- IC50 (second compound 0.1 µM): > 10 µM
- IC50 (second compound 0.316 µM): > 10 µM
- IC50 (second compound 1 µM): > 10 µM
- IC50 (second compound 3.16 µM): > 10 µM
- IC50 (second compound 10 µM): > 10 µM
- viability, T/C [1]: 111%
- viability, T/C [2]: 90.2%
- viability, T/C [3]: 102%
- viability, T/C [4]: 98.1%
- viability, T/C [5]: 120%
- viability, T/C [6]: 112%
- viability, T/C [7]: 88.5%
- viability, T/C [8]: 98.3%
- viability, T/C [9]: 110%
- viability, T/C [10]: 99.5%
- viability, T/C [11]: 114%
- viability, T/C [12]: 96.6%
- viability, T/C [13]: 90.5%
- viability, T/C [14]: 95.7%
- viability, T/C [15]: 96.2%
- viability, T/C [16]: 101%
- viability, T/C [17]: 119%
- viability, T/C [18]: 120%
- viability, T/C [19]: 128%
- viability, T/C [20]: 110%
- viability, T/C [21]: 94.8%
- viability, T/C [22]: 108%
- viability, T/C [23]: 125%
- viability, T/C [24]: 98.6%
- viability, T/C [25]: 108%
- viability, T/C [26]: 95.6%
- viability, T/C [27]: 90.5%
- viability, T/C [28]: 107%
- viability, T/C [29]: 114%
- viability, T/C [30]: 108%
- viability, T/C [31]: 86.2%
- viability, T/C [32]: 104%
- viability, T/C [33]: 86.6%
- viability, T/C [34]: 91.1%
- viability, T/C [35]: 88.2%
- viability, T/C [36]: 73.1%
